From ChEMBL document CHEMBL3751809, “Symmetric 4,4'-(piperidin-4-ylidenemethylene)bisphenol derivatives as novel tunable estrogen receptor (ER) modulators” (Bioorg Med Chem, 2016)
Calls of active or inactive are those of the source. No cut-off for these calls is given here.

Key:
[1] = molecular target: T1, Estrogen receptor (Homo sapiens) (UniProt P03372); test: Displacement of [6,7-3H]17beta-estradiol from recombinant human ERalpha ligand binding domain incubated for 16 hrs by scintillation counting analysis
T1 sequence (whole entry): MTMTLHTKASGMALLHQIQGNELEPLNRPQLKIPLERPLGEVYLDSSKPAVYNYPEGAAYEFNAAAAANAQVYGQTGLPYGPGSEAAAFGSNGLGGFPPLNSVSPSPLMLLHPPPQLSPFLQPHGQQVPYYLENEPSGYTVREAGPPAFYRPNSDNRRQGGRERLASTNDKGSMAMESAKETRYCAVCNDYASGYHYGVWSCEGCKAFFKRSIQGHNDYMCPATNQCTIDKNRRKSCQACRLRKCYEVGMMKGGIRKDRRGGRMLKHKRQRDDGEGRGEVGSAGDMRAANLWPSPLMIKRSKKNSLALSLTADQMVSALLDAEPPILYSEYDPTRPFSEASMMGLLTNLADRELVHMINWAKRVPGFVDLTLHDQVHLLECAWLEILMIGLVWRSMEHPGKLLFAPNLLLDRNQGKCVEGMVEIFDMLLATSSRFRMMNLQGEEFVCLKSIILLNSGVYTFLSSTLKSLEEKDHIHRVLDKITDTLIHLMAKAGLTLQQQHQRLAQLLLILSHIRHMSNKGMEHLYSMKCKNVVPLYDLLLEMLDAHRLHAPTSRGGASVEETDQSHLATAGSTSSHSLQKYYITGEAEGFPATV

[2] = molecular target: T1, Estrogen receptor (Homo sapiens); test: Displacement of [6,7-3H]17beta-estradiol from recombinant human ERalpha ligand binding domain at 0.4 to 4 uM incubated for 16 hrs by scintillation counting analysis
[3] = molecular target: T1, Estrogen receptor (Homo sapiens); test: Agonist activity at ERalpha in human MCF7 cells assessed as induction of cell proliferation incubated for 5 days by WST-8 assay; format: cell-based
[4] = molecular target: T1, Estrogen receptor (Homo sapiens); test: Antagonist activity at ERalpha in human MCF7 cells assessed as inhibition of 17beta-estradiol-mediated cell proliferation incubated for 5 days by WST-8 assay; format: cell-based

SMILES | inhibition [2] | further results
CCOC(=O)N1CCC(=C(c2ccc(O)cc2)c2ccc(O)cc2)CC1 | – | inhibition [1]: Dose-dependent effect
CC(=O)N1C(C)(C)CC(=C(c2ccc(O)cc2)c2ccc(O)cc2)CC1(C)C | Active | Activity [3]: Dose-dependent effect; inhibition [4]: inactive
CC(=O)N1CCC(=C(c2ccc(O)cc2)c2ccc(O)cc2)CC1 | inactive | –
Oc1ccc(C(=C2CCNCC2)c2ccc(O)cc2)cc1 | inactive | –
CN1CCC(=C(c2ccc(O)cc2)c2ccc(O)cc2)CC1 | inactive | –
CC1(C)CC(=C(c2ccc(O)cc2)c2ccc(O)cc2)CC(C)(C)N1 | Active | –
